In ChEMBL document CHEMBL3779887, “Robenidine Analogues as Gram-Positive Antibacterial Agents” (J Med Chem, 2016):
In brackets after ≈: the same amount, converted by molar mass.

Legend:
Format in all cases: functional
Staphylococcus aureus = test: Antibacterial activity against methicillin-resistant Staphylococcus aureus after 20 to 24 hrs
Enterococcus = test: Antibacterial activity against vancomycin-resistant Enterococcus after 20 to 24 hrs
Escherichia coli = test: Antibacterial activity against Escherichia coli ATCC 25922 after 20 to 24 hrs
Pseudomonas aeruginosa = test: Antibacterial activity against Pseudomonas aeruginosa ATCC 27853 after 20 to 24 hrs

Compound | MIC (Staphylococcus aureus) [µM] | MIC (Enterococcus) [µM] | MIC (Escherichia coli) [µM] | MIC (Pseudomonas aeruginosa) [µM]
CCCc1ccc(/C=N/NC(=N)N/N=C/c2ccc(CCC)cc2)cc1 | 83 (≈ 29 µg/mL) | 73 (≈ 25.5 µg/mL) | > 400 | > 400
N=C(N/N=C/c1ccccc1O)N/N=C/c1ccccc1O | 36 (≈ 10.7 µg/mL) | 240 (≈ 71.4 µg/mL) | > 400 | > 400
Cc1ccccc1/C=N/NC(=N)N/N=C/c1ccccc1C | 121 (≈ 35.5 µg/mL) | 61 (≈ 17.9 µg/mL) | > 400 | > 400
CSc1ccc(/C=N/NC(=N)N/N=C/c2ccc(SC)cc2)cc1 | 61 (≈ 21.8 µg/mL) | 12.7 (≈ 4.54 µg/mL) | > 400 | > 400
N=C(N/N=C/c1ccc(F)c(F)c1)N/N=C/c1ccc(F)c(F)c1 | 40.1 (≈ 13.5 µg/mL) | 10.7 (≈ 3.61 µg/mL) | > 400 | > 400
